Legend:
[1] = […] of autophagy in human H4 cells assessed as decrease in LC3B spot area by immunofluorescence assay; format: functional, cell-based
[2] = test system: NCI-H1650; assay: Antiproliferative activity against human H1650 cells assessed as reduction in cell viability after 72 hrs by cell titer glow assay; format: cell-based; details: NCI-H1650, 72 h
[3] = biological target: T1, Ubiquitin-like modifier-activating enzyme ATG7 (Homo sapiens, UniProt O95352); assay: Inhibition of recombinant His-tagged human ATG7 incubated for 105 mins in presence of GST-tagged ATG3 and Flag-tagged Gabarap and measured after 2 hrs by FRET assay relative to control
T1 sequence (O95352 whole entry): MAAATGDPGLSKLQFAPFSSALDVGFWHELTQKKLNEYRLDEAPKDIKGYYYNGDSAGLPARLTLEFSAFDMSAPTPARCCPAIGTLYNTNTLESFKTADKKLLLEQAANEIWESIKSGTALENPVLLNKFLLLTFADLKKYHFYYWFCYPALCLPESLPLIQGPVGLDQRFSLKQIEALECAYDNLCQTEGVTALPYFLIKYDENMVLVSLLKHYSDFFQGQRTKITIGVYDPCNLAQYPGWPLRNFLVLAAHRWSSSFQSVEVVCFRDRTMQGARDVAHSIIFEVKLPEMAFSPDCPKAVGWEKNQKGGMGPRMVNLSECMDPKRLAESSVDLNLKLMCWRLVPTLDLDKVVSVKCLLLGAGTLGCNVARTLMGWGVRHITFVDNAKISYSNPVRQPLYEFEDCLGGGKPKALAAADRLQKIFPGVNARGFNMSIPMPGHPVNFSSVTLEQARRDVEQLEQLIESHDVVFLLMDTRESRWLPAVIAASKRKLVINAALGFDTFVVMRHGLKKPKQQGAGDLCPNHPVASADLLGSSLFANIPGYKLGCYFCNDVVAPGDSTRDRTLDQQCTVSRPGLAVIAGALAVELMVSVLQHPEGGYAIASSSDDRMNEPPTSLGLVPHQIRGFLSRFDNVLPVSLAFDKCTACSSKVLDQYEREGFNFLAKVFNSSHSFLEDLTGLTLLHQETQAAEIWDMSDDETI

[4] = biological target: T1, Ubiquitin-like modifier-activating enzyme ATG7; assay: Inhibition of ATG7 in human 293HEK cells assessed as inhibition of ATG7:ATG8 thioester formation after 8 hrs by Western blot analysis; format: cell-based, HEK293
[5] = biological target: T1, Ubiquitin-like modifier-activating enzyme ATG7; assay: Inhibition of ATG7 in human 293HEK cells assessed as inhibition of ATG7:ATG8 thioester formation after 4 hrs by Western blot analysis; format: cell-based, HEK293
[6] = test system: SK-OV-3; assay: […] of autophagy in human SKOV3 cells assessed as accumulation of p62 by immunofluorescence assay; format: functional, cell-based
[7] = Inhibition of UAE (unknown origin)
[8] = Inhibition of SAE (unknown origin)
[9] = test system: SK-OV-3; assay: […] of autophagy in human SKOV3 cells assessed as accumulation of NRB1 by immunofluorescence assay; format: functional, cell-based
[10] = Inhibition of NAE (unknown origin)

| IC50 [1] [µM] | EC50 [2] [µM] | IC50 [3] [µM] | IC50 [4] [µM] | IC50 [5] [µM] | EC50 [6] [µM] | IC50 [7] [µM] | EC50 [9] [µM] | IC50 [10] [µM] | SMILES | IC50 [8] [µM] |
| --- | --- | --- | --- | --- | --- | --- | --- | --- | --- | --- |
| 2.53 | > 50 | 0.145 |  |  |  |  |  |  | CSc1nn([C@@H]2O[C@@H](COS(N)(=O)=O)[C@@H](O)[C@@H]2F)c2ncnc(N)c12 |  |
| 0.727 | 22.4 | 0.02 | 0.056 | 0.199 |  |  |  |  | CC(C)Sc1nn([C@@H]2O[C@H](COS(N)(=O)=O)[C@@H](O)[C@@H]2F)c2ncnc(N)c12 |  |
| 0.977 | 5.79 | 0.041 | 0.047 |  |  |  |  |  | CSc1nn([C@@H]2O[C@H](COS(N)(=O)=O)[C@@H](O)[C@@H]2F)c2ncnc(N)c12 |  |
| 0.483 | 49.1 |  | 0.051 | 0.14 |  |  |  |  | Cc1cccc(Sc2nn([C@@H]3O[C@H](COS(N)(=O)=O)[C@@H](O)[C@@H]3F)c3ncnc(N)c23)c1 |  |
| 0.938 | 10.4 | 0.048 | 0.086 | 0.28 | 3 | > 1 | > 20 | > 1 | CSc1nn([C@H]2C[C@H](O)[C@@H](COS(N)(=O)=O)O2)c2ncnc(N)c12 | > 1 |
| 1.26 | > 50 | 0.124 |  |  |  |  |  |  | CSc1nn([C@H]2C[C@H](O)[C@H](COS(N)(=O)=O)O2)c2ncnc(N)c12 |  |
|  | 18.3 | 0.043 |  | 0.453 |  |  |  |  | Nc1ncnc2c1c(OC(F)F)nn2[C@@H]1O[C@H](COS(N)(=O)=O)[C@@H](O)[C@@H]1F |  |
|  | 33.9 | 0.177 | 0.317 |  |  |  |  |  | COc1nn([C@@H]2O[C@H](COS(N)(=O)=O)[C@@H](O)[C@@H]2F)c2ncnc(N)c12 |  |
| 1.5 | 1.54 | 0.014 | 0.083 | 0.431 |  |  |  |  | CSc1nn([C@@H]2O[C@H](COS(N)(=O)=O)[C@@H](O)[C@H]2O)c2ncnc(N)c12 |  |
| 6 | > 50 | 0.325 |  | 1.28 |  |  |  |  | CSc1nn([C@@H]2O[C@@H](COS(N)(=O)=O)[C@@H](O)[C@H]2O)c2ncnc(N)c12 |  |
|  | 15.4 | 0.022 | 0.16 |  |  |  |  |  | CCSc1nn([C@@H]2O[C@H](COS(N)(=O)=O)[C@@H](O)[C@H]2O)c2ncnc(N)c12 |  |

The remaining lines, values behind:

| SMILES | IC50 [1] [µM] | EC50 [2] [µM] | IC50 [3] [µM] | IC50 [4] [µM] | IC50 [5] [µM] | EC50 [6] [µM] | IC50 [7] [µM] | EC50 [9] [µM] | IC50 [10] [µM] | IC50 [8] [µM] |
| --- | --- | --- | --- | --- | --- | --- | --- | --- | --- | --- |
| Nc1ncnc2c1c(Sc1cccc(Cl)c1)nn2[C@H]1C[C@H](O)[C@H](COS(N)(=O)=O)O1 | 1.37 | > 50 | 0.19 |  |  |  |  |  |  |  |
| Nc1ncnc2c1c(OC(F)F)nn2[C@H]1C[C@H](O)[C@@H](COS(N)(=O)=O)O1 | 1.77 | > 50 | 0.1 | 0.545 |  |  |  |  |  |  |
| Nc1ncnc2c1c(OCc1ccccc1)nn2[C@@H]1O[C@H](COS(N)(=O)=O)[C@@H](O)[C@H]1O |  | > 50 | 0.264 | 1.28 |  |  |  |  |  |  |
| COc1nn([C@H]2C[C@H](O)[C@@H](COS(N)(=O)=O)O2)c2ncnc(N)c12 |  | 31.5 | 0.249 |  |  |  |  |  |  |  |
| CC(C)Oc1nn([C@@H]2O[C@H](COS(N)(=O)=O)[C@@H](O)[C@H]2O)c2ncnc(N)c12 |  | > 50 | 2.6 |  |  |  |  |  |  |  |
| Nc1ncnc2c1c(Sc1cn[nH]c1)nn2[C@@H]1O[C@H](COS(N)(=O)=O)[C@@H](O)[C@H]1O |  | > 50 | 0.016 |  | 1.28 |  |  |  |  |  |
| CC(C)Sc1nn([C@H]2C[C@H](O)[C@@H](COS(N)(=O)=O)O2)c2ncnc(N)c12 | 1.09 | > 50 | 0.027 | 0.15 | 0.438 |  |  |  |  |  |
| CC(C)Sc1nn([C@H]2C[C@H](O)[C@H](COS(N)(=O)=O)O2)c2ncnc(N)c12 | 1.92 | > 50 | 0.057 |  | 0.468 |  |  |  |  |  |
| Nc1ncnc2c1c(SCc1ccccc1)nn2[C@@H]1O[C@H](COS(N)(=O)=O)[C@@H](O)[C@H]1O |  | > 50 | 0.023 | 0.322 | 0.604 |  |  |  |  |  |
| CCSc1nn([C@H]2C[C@H](O)[C@@H](COS(N)(=O)=O)O2)c2ncnc(N)c12 | 1.36 | > 50 | 0.052 |  | 0.367 | 2.3 | > 1 | > 20 | > 1 | > 1 |
| Nc1ncnc2c1c(Sc1cccc(Cl)c1)nn2[C@H]1C[C@H](O)[C@@H](COS(N)(=O)=O)O1 | 1.15 | > 50 | 0.104 |  | 0.499 |  |  |  |  |  |
| Nc1ncnc2c1c(Sc1ccc3c(c1)CCC3)nn2[C@H]1C[C@H](O)[C@@H](COS(N)(=O)=O)O1 | 0.71 | > 50 | 0.066 |  |  |  |  |  |  |  |
| Nc1ncnc2c1c(OC(F)F)nn2[C@@H]1O[C@H](COS(N)(=O)=O)[C@@H](O)[C@H]1O | 2.3 | 10 | 0.029 | 0.162 | 0.479 |  |  |  |  |  |
| Cc1cccc(Sc2nn([C@@H]3O[C@H](COS(N)(=O)=O)[C@@H](O)[C@H]3O)c3ncnc(N)c23)c1 |  | > 50 | 0.018 | 0.178 |  |  |  |  |  |  |
| CC(C)Sc1nn([C@@H]2O[C@H](COS(N)(=O)=O)[C@@H](O)[C@H]2O)c2ncnc(N)c12 | 4.23 | > 50 | 0.017 | 0.284 | 1.25 |  |  |  |  |  |
| Cc1cccc(Sc2nn([C@H]3C[C@H](O)[C@@H](COS(N)(=O)=O)O3)c3ncnc(N)c23)c1 | 1.26 | > 50 | 0.095 |  | 0.422 |  |  |  |  |  |
| Nc1ncnc2c1c(Sc1cccc(Cl)c1)nn2[C@@H]1O[C@H](COS(N)(=O)=O)[C@@H](O)[C@@H]1F | 0.534 | 39.7 | 0.031 | 0.056 | 0.198 |  |  |  |  |  |
| COc1nn([C@@H]2O[C@H](COS(N)(=O)=O)[C@@H](O)[C@H]2O)c2ncnc(N)c12 | 2.6 | 5.94 | 0.089 | 0.335 |  |  | > 1 |  | > 1 | > 50 |
| Nc1ncnc2c1c(Sc1ccc3c(c1)CCC3)nn2[C@H]1C[C@H](O)[C@H](COS(N)(=O)=O)O1 | 0.996 | > 50 | 0.156 |  |  |  |  |  |  |  |
| Nc1ncnc2c1cnn2[C@@H]1O[C@H](COS(N)(=O)=O)[C@@H](O)[C@H]1O |  | 0.075 | 0.457 |  |  |  |  |  |  |  |
| Nc1ncnc2c1c(CCc1ccccc1)nn2[C@@H]1O[C@H](COS(N)(=O)=O)[C@@H](O)[C@H]1O |  | > 50 | 0.351 |  |  |  |  |  |  |  |
| Cc1ccc(Sc2nn([C@H]3C[C@H](O)[C@@H](COS(N)(=O)=O)O3)c3ncnc(N)c23)c(F)c1 | 0.533 | > 50 | 0.08 |  |  |  |  |  |  |  |
| Nc1ncnc2c1c(Sc1ccccc1)nn2[C@@H]1O[C@H](COS(N)(=O)=O)[C@@H](O)[C@H]1O |  | > 50 | 0.029 | 0.201 |  |  |  |  |  |  |
| CC(C)Sc1nn([C@@H]2O[C@@H](COS(N)(=O)=O)[C@@H](O)[C@H]2O)c2ncnc(N)c12 | 20.1 | > 50 | 0.129 | 0.882 | 0.882 |  |  |  |  |  |
| CCOc1nn([C@@H]2O[C@H](COS(N)(=O)=O)[C@@H](O)[C@H]2O)c2ncnc(N)c12 |  | 49.4 | 0.255 |  |  |  |  |  |  |  |
| Nc1ncnc2c1c(O)nn2[C@@H]1O[C@H](COS(N)(=O)=O)[C@@H](O)[C@H]1O |  | > 50 | 0.084 |  |  |  |  |  |  |  |
| Cc1ccc(Sc2nn([C@H]3C[C@H](O)[C@H](COS(N)(=O)=O)O3)c3ncnc(N)c23)c(F)c1 | 0.659 | > 50 | 0.062 |  |  | 3 | > 1 | 9.4 | > 1 | > 1 |

Source: ChEMBL document CHEMBL4725396, “Discovery and optimization of pyrazolopyrimidine sulfamates as ATG7 inhibitors” (Bioorg Med Chem, 2020)
